What was measured:
[1] = Cell viability assay (MTT) on MCF-10A; type: cell-based; conditions: human, MCF-10A mammary gland epithelial cells, MCF-10A cells, four days
Description: To assess the viability of compounds IV and Va–i, the human mammary gland epithelial (MCF-10A) cell line was exploited. Compounds IV and Va–i were cultured for four days on MCF-10A cells before being evaluated for vitality using the MTT assay.
To test the viability of the new compounds, the human mammary gland epithelial (MCF-10A) cell line was used. Compounds IV and Va–i were incubated on MCF-10A cells for four days before being tested for viability using the MTT assay. See Supplementary Materials.
4.2. Biological evaluation
4.2.1. Cytotoxic activity using MTT Assay and evaluation of IC50
MTT assay was performed to investigate the effect of the synthesized compounds on mammary epithelial cells (MCF-10A). The cells were propagated in medium consisting of Ham's F-12 medium/ Dulbecco's modified Eagle's medium (DMEM) (1:1) supplemented with 10% foetal calf serum, 2 mM glutamine, insulin (10 μg/mL), hydrocortisone (500 ng/mL) and epidermal growth factor (20 ng/mL). Trypsin ethylenediamine tetra acetic acid (EDTA) was used to passage the cells after every 2-3 days. 96-well flat-bottomed cell culture plates were used to seed the cells at a density of 10^4 cells mL-1. The medium was aspirated from all the wells of culture plates after 24 h followed by the addition of synthesized compounds (in 200 μL medium to yield a final concentration of 0.1% (v/v) dimethyl sulfoxide) into individual wells of the plates. Four wells were designated to a single compound. The plates were allowed to incubate at 37°C for 96 h. Afterwards, the medium was aspirated and 3-[4,5-dimethylthiazol-2-yl]-2,5-diphenyltetrazolium bromide (MTT) (0.4 mg/mL) in medium was added to each well and subsequently incubated for 3 h. The medium was aspirated and 150 μL dimethyl sulfoxide (DMSO) was added to each well. The plates were vortexed followed by the measurement of absorbance at 540 nm on a microplate reader. The results were presented as inhibition (%) of proliferation in contrast to controls comprising 0.1%

[2] = tested on: human epithelial (A-549) cancer cell line; experiment: Antiproliferative assay, A-549; type: cell-based; conditions: A549, read-out: Antiproliferative Activity IC50 ± SEM, A-549
Description: (§1) 4.2.1.2. Assay for antiproliferative effect
(§2) To explore the antiproliferative potential of compounds propidium iodide fluorescence assay was performed using different cell lines such as Panc-1 (pancreas cancer cell line), MCF-7 (breast cancer cell line), HT-29 (colon cancer cell line) and A-549 (epithelial cancer cell line), respectively.
(§3) To calculate the total nuclear DNA, a fluorescent dye (propidium iodide, PI) is used which can attach to the DNA, thus offering a quick and precise technique. PI cannot pass through the cell membrane and its signal intensity can be considered as directly proportional to quantity of cellular
(§4) DNA. Cells whose cell membranes are damaged or have changed permeability are counted as dead ones. The assay was performed by seeding the cells of different cell lines at a density of 3000-7500 cells/well (in200μl medium) in culture plates followed by incubation for 24h at 37 °C in humidified 5%CO2/95% air atmospheric conditions. The medium was removed; the compounds were added to the plates at 10 μM concentrations (in 0.1% DMSO) in triplicates, followed by incubation for 48h. DMSO (0.1%) was used as control. After incubation, medium was removed followed by the addition of PI (25 μl, 50μg/mL in water/medium) to each well of the plates. At - 80 °C, the plates were allowed to freeze for 24 h, followed by thawing at 25 °C. A fluorometer (Polar-Star BMG Tech) was used to record the readings at excitation and emission wavelengths of 530 and 620 nm for each well. The percentage cytotoxicity of compounds was calculated using […]
(§5) Where ATC= Absorbance of treated cells and AC= Absorbance of control. Erlotinib was used as positive control in the assay.

[3] = tested on: breast cancer (MCF-7) cell line; experiment: Antiproliferative assay, MCF-7; type: cell-based; conditions: Homo sapiens, MCF7; read-out: Antiproliferative Activity IC50 ± SEM, MCF-7
Description: as §1, §2, §3, §4, §5

[4] = tested on: pancreatic cancer (Panc-1) cell line; experiment: Antiproliferative assay, Panc-1; type: cell-based; conditions: Homo sapiens, read-out: Antiproliferative Activity IC50 ± SEM, Panc-1
Description: as §1, §2, §3, §4, §5

[5] = tested on: colon cancer (HT-29) cell line; experiment: Antiproliferative assay, HT-29; type: cell-based; conditions: Homo sapiens, read-out: Antiproliferative Activity IC50 ± SEM, HT-29
Description: as §1, §2, §3, §4, §5

[6] = tested on: four human cancer cell lines (A-549, MCF-7, Panc-1, HT-29); experiment: Antiproliferative assay, average over the four cancer cell lines (GI50); type: cell-based; conditions: average of the four cancer cell lines
Description: (§6) See Supplementary Materials.
as §1
To explore the antiproliferative potential of compounds propidium iodide fluorescence assay was performed using different cell lines such as Panc-1 (pancreas cancer cell line), MCF-7 (breast […]
as §3
DNA. Cells whose cell membranes are damaged or have changed permeability are counted as dead ones. The assay was performed by seeding the cells of different cell lines at a density of 3000- […]
The medium was removed; the compounds were added to the plates at 10 μM concentrations (in 0.1% DMSO) in triplicates, followed by incubation for 48h. DMSO (0.1%) was used as control. After incubation, medium was removed followed by the addition of PI (25 μl, 50μg/mL in water/medium) to each well of the plates. At - 80 °C, the plates were allowed to freeze for 24 h, followed by thawing at 25 °C. A fluorometer (Polar-Star BMG Tech) was used to record the readings at excitation and emission wavelengths of 530 and 620 nm for each well. The percentage cytotoxicity of compounds was calculated using […]
Where ATC= Absorbance of treated cells and AC= Absorbance of control. […]
positive control in the assay.

caspase-8 = experiment: Caspase-8 level assay in A-549 cells; type: cell-based, human; conditions: for Caspase-8 Conc: control 0.10; for Caspase-8 Fold Change: vs control
Description: as §6
4.2.6. Caspase-8 activation assay […]
caspase8, and lysed with Cell Extraction Buffer. This lysate was diluted in Standard Diluent Buffer over the range of the assay and measured for human active caspase-8 content. (Cells are Plated in a density of 1.2 – 1.8 × 10,000 cells/well in a vo lume of 100µl complete growth medium + 100 ul of the tested compound per well in a 96-well plate for 24 hours before the enzyme assay for Tubulin.). The absorbance of each microwell was read on a spectro-photometer at 450 nm. A standard curve is prepared from 7human Caspase-8 standard dilutions and human Caspase-8 concentration determined. […]

EGFR = EGFR (Homo sapiens, UniProt P00533); experiment: EGFR inhibitory assay
EGFR, sequence (P00533 669-1210): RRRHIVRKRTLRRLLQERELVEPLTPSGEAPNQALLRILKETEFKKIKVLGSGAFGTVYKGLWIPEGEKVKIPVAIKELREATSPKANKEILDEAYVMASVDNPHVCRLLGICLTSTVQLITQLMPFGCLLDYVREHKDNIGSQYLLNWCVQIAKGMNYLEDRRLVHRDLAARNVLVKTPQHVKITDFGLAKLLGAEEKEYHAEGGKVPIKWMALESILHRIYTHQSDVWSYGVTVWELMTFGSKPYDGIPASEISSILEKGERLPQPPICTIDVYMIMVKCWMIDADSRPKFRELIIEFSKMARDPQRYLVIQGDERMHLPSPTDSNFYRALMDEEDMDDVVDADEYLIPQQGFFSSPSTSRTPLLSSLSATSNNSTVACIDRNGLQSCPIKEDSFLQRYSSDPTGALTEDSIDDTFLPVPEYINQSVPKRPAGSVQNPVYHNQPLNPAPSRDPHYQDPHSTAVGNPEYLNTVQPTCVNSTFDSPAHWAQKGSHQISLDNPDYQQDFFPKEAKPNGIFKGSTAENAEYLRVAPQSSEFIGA

VEGFR-2 = VEGFR-2 (Homo sapiens, UniProt P35968); experiment: VEGFR-2 inhibitory assay
VEGFR-2, sequence (P35968 20-1356): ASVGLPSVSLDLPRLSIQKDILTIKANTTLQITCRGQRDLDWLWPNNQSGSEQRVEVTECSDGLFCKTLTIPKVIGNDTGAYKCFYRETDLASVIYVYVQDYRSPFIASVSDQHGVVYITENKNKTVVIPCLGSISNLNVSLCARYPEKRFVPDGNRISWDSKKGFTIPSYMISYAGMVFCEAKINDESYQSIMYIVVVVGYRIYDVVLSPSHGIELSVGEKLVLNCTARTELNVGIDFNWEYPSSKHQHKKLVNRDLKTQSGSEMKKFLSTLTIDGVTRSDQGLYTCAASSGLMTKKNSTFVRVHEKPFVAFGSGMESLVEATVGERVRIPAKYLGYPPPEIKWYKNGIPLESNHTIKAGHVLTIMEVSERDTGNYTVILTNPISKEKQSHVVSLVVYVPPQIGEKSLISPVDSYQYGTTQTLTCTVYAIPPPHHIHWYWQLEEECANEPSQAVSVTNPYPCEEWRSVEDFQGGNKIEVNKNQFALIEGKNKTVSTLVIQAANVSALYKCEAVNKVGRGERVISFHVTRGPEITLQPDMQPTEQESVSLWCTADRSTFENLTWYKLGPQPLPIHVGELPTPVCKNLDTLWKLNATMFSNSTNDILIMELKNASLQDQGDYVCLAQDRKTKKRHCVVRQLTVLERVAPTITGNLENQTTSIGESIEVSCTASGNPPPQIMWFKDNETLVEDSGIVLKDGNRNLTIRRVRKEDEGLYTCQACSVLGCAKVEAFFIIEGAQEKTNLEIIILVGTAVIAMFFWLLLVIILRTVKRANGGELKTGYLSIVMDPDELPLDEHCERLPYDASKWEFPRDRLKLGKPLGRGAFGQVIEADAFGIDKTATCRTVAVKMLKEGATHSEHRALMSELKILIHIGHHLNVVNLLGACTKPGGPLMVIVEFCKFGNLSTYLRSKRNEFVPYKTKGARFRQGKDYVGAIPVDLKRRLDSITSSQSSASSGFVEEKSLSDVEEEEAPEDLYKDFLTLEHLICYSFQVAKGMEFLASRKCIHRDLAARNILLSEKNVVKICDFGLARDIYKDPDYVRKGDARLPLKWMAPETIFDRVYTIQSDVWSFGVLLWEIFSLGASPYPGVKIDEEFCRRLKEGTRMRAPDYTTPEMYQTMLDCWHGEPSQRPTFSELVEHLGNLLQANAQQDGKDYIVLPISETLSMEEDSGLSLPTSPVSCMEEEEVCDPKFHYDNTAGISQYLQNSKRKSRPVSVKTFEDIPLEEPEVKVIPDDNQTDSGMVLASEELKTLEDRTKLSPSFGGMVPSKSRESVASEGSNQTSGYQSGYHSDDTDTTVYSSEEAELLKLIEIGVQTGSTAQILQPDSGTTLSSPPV
Description: Prepare all the solutions using autoclaved, deionized water and analytical grade reagents.
and store all the reagents at room temperature (unless indicated otherwise).
solution, add 5 mL ultra-pure water; 1×Kinase Assay Buffer: add 25 mL HEPES solution (1 M),
water, adjust pH to 7.5 and constant volume to 500 mL using ultrapure water; 4×Stop solution (40
mM): Mix 0.8 mL of the foregoing EDTA solution, 1 mL 10×Detection Buffer and 8.2 mL ultra-
pure water; 1×Detection Buffer: Mix 1 mL 10×Detection Buffer with 9 mL water; 4×VEGFR
μM) was added to 624 μL 1×Kinase Assay Buffer and mixed; 4×ULight™-labeled JAK1
concentration 5 μM) was added to 576 μL 1×Kinase Assay Buffer and mixed; 4×ATP Solution
2×substrate/ATP Mix: 560 μL foregoing 4×ULight™-labeled JAK1 and 560 μL 4×ATP solution
and mixed (prepared before use). The assays used an ULight-labeled peptide substrate and a
Europium-W1024-labeled antiphosphotyrosine antibody. The VEGFR-2 was purchased from
Carna Biosciences, Inc. (New York, USA). The 384-well plates were obtained from PerkinElmer.
5 μL 2×VEGFR-2 kinase solution (0.5 nM)
was added to 384-well plates homogeneous mixing and pre-reaction at room temperature for 30 min. Next, 2.5 μL 4×Ultra ULightTM-JAK-1(Tyr1023) Peptide (200 nM)/ATP (40 μM) was added to the corresponding wells of a 384-well plate. Negative control: 2.5 μL/well 4×substrate/ATP mixture and 7.5 μL 1×kinase assay buffer in 384-well plate well. Positive control:
μL/well 2×VEGFR-2 kinase solution was added to the 384-well plate, The final concentration of DMSO in the mixing system was 4%. After incubation at room temperature and dark for 60 min, 5 μL 4×stop solution was added to corresponding wells to react for 5 min and then 5 μL 4×detection mix was added to the corresponding wells of a 384-well plate. The mixture was centrifugally mixed and stayed for 60 min at room temperature for color development. The plate was read using a Envision plate reader. The inhibition rate (%) = (positive well reading-compound well reading)/(positive well reading-negative well reading)×100. The corresponding IC50 values were calculated using GraphPad Prism 5.0.

BRAF^V600E = BRAF^V600E (Mus musculus, UniProt P28028, V585E); experiment: BRAF^V600E inhibitory assay
BRAF^V600E, sequence (P28028 whole entry V585E): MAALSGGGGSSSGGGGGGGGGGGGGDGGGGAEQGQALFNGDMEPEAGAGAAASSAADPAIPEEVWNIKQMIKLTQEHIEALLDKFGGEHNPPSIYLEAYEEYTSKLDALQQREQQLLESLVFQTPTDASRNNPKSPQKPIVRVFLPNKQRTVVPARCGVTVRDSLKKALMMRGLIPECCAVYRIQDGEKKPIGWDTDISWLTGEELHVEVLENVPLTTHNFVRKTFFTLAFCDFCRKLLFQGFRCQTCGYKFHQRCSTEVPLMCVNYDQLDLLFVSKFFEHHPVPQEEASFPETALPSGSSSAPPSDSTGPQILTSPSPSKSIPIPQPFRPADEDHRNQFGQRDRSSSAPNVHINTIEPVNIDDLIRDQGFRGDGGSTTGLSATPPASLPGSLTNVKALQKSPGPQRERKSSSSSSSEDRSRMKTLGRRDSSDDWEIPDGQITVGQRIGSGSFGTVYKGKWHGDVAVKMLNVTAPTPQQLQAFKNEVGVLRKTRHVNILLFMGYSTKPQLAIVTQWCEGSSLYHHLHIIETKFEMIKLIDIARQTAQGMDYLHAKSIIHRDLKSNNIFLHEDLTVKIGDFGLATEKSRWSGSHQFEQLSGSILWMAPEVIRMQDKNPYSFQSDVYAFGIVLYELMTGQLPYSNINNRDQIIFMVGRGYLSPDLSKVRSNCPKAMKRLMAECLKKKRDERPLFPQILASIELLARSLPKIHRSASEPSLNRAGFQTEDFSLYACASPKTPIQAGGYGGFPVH
Description: BRAFV600E inhibitory assay
V600E mutant BRAF kinase assay was performed to investigate the activity of tested compounds against BRAF. Mouse full-length GST-tagged BRAFV600E (7.5 ng, Invitrogen, PV3849) was pre-incubated with drug (1 µL) and assay dilution buffer (4 µL) for 60 min at 25 °C. In assay dilution buffer, a solution (5 µL) containing MgCl2 (30 mM), ATP (200 µM), recombinant human full length (200 ng) and N-terminal His-tagged MEK1 (Invitrogen) was added to start the assay, subsequent to incubation for 25 min at 25 °C. The assay was stopped using 5X protein denaturing buffer (LDS) solution (5 µL). To further denature the protein, heat (70° C) was applied for 5 min.
10 µL of each reaction was loaded into the precast plates and electrophoresis was allowed to proceed. After completion of electrophoresis, the front part of the precast gel plate (holding hot ATP) was cut and afterwards cast-off. The dried gel was developed using a phosphor screen.

IC50 [2] | IC50 [3] | IC50 [4] | IC50 [5] | GI50 [6] | IC50 (EGFR) | IC50 (VEGFR-2) | IC50 (BRAF^V600E) | Compound | viability at 96 h, 50 µM [1] | Caspase-8 Conc (caspase-8) | Caspase-8 Fold Change (caspase-8)
0.025 ± 0.002 µM | 0.028 ± 0.002 µM | 0.026 ± 0.002 µM | 0.026 ± 0.002 µM | 0.026 µM | 0.071 ± 0.006 µM | 0.00215 ± 0.0002 µM | 0.077 ± 0.006 µM | O=C(NCC(c1ccccc1)c1c(-c2ccccc2)[nH]c2ccccc12)c1cc2cc(Cl)ccc2[nH]1 (stereo not shown) [Compound Va, 5-Chloro-N-(2-phenyl-2-(2-phenyl-1H-indol-3-yl)ethyl)-1H-indole-2-carboxamide] | 91% | 3.50 ng/mL | 35
0.03 ± 0.002 µM | 0.033 ± 0.003 µM | 0.03 ± 0.002 µM | 0.03 ± 0.002 µM | 0.031 µM | 0.079 ± 0.006 µM | 0.0016 ± 0.0001 µM | 0.083 ± 0.006 µM | CO/C=C/c1c(C(=O)NCC(c2ccccc2)c2c(-c3ccccc3)[nH]c3ccccc23)[nH]c2ccc(Cl)cc12 (stereo not shown) [Compound Vg, (E)-5-Chloro-3-(2-methoxyvinyl)-N-(2-phenyl-2-(2-phenyl-1H-indol-3-yl)ethyl)-1H-indole-2-carboxamide] | 89% | 2.20 ng/mL | 22

From paper PMC10385579, “Design, Synthesis, and Biological Evaluation of Indole-2-carboxamides as Potential Multi-Target Antiproliferative Agents” (Pharmaceuticals, 2023)
